Test results: patent US8822533B1, “Methods and compositions for repelling and/or killing insects” (The United States of America, as represented by the …, priority 2011, dated 2014)

Legend:
[1] = system: Ae. aegypti + An. albimanus; test: Bite protection of FRACUs (Defender-M) treated with insecticides; format: in vivo; details: FRACU (Defender-M) sleeve; allethrin 0.085, bioresmethrin 0.106, etofenprox 0.101, bifenthrin 0.101 mg/cm^2
Procedure: Biological Evaluation: Bite protection assays were conducted with laboratory-reared 7-12 day old mosquitoes or sand flies. The species used throughout these studies are Aedes aegypti (Orlando, 1952) and Phlebotomus papatasi sand flies (Jerusalem, 1983). Females were pre-selected using either a hand draw box or a mechanical aspirator.
An assay was conducted by wearing sewn sleeves made from clothing material. Treated specimens were assayed with untreated controls to correct for the bite resistance afforded by material construction and composition. The untreated control was tested at the beginning of the experiment, followed by successively higher candidate repellent concentrations on sleeves. Sleeves were sewn from a cut out single ply trapezoidal pattern (33.2 cm×21 cm×25.5 cm height) of material. Sleeves were normally with a candidate repellent at the EPA permethrin label rate of 0.52% weight on (+5% tolerance) or less (0.125 mg/cm^2 for the 50/50 Nylon/Cotton (NYCO) Army Combat Uniform and 0108 mg./cm2 for the 65% Rayon/25% Para-aramid/10% Nylon Fire-Resistant Army Combat Uniform). Permethrin was 35:65cis: trans, 95.85% technical material. Experimental repellents were received as neat samples with <5% impurities. The treatment occurred by dissolution of repellent in suitable quantity of acetone to saturate the clothing, but minimizing excess solution. Excess solution was quantified and this amount of excess was then used to calculate the estimated amount of repellent applied to the material.
Insects were maintained in colony at approximately 78° F. and 60-80% RH. The photoperiod was 12:12. The mosquito cages were approximately 60000 cm^3 and each contained 175 to 225 female mosquitoes. […] Cages for sand fly work were slightly smaller (15000 cm^3) and constructed of acrylic for filming purposes and with screens on the exterior edges to allow air flow through the system. About 20-40 sand flies were released in cages for each assay. Assays started when the sleeved arm was inserted through the sleeve into the cage. Normally the hand was protected by a glove, but there were situations (i.e. sand fly data presented here) when the ability of a repellent to protect the untreated hand was determined. The assay periods were 15 min for the mosquitoes and 25-30 minutes for sand flies. The insects were allowed to land, probe and possibly bloodfeed during this time. At the conclusion of the experiment, all insects were knocked down or aspirated and the percentage that bloodfed of the total female test population in the cage was recorded. The protect level was calculated by Abbott's formula as a percentage reduction in bites compared to the untreated fabric control sleeve.
We were able to examine several treatments on the FRACU fabric sleeves (Table 7). […]

[2] = system: bed bugs (Cimex lectularius); test: Bed bug mortality on treated filter paper; format: in vivo; details: for mortality at 1 µg/cm2 / mortality at 10 µg/cm2 / mortality at 100 µg/cm2: Cimex lectularius, 24 h
Procedure: Knockdown data and mortality for volatile pyrethroids against bed bugs (Cimex lectularius): Compounds were dissolved in acetone to yield concentrations of 100 μg/cm^2, 10 μg/cm^2, and 1 μg/cm^2 and 47 mm filter paper disks were treated. Acetone-treated filter paper was used as a negative control. Mixed stages (nymphs and adults) of a laboratory colony of the bed bug Cimex lectularius were placed on the treated filter paper in glass Petri dishes and mortality was recorded 24 h later, at which time bed bugs were removed to untreated surfaces. 24 h after this transfer another assessment of mortality was made to see if any dead or moribund bugs had recovered.

[3] = system: Mosquitoes, either Aedes aegypti (Liverpool) or Anopheles stephensi Liston; test: K&D module in vitro bioassay: biting protection, knockdown and mortality; format: in vivo; details: for mortality at 0.0025 µM / mortality at 0.025 µM: Aedes aegypti; for mortality at 0.0025 µM: 24 h; for mortality at 0.025 µM: 48 h
Procedure: In vitro bioassays were conducted as described by Klun et. al. (Klun, J. A., et al., J. Med. Entomol., 40: 293-299 (2005)). Each test replicate consisted of 3 treatments: a control (EtOH); a standard (Deet, 4.54 nmol/μl); and an experimental compound (pyrethroid analogs, 4.54 nmol/ul). The 3 treatments were randomly assigned to consecutive cells in 2, 6-cell reservoirs connected in series to a single water-bath pump; thus, 4 replicates could be tested/run. Tests were performed in an Air Science USA hood, with an air movement velocity of approx. 110-120 ft./min., temperature of 25-27° C., and RH of 15-25%. A 6-celled reservoir was connected to and heated by a constant-temperature (38° C.) water circulator (Lauda E100, Wobser GMGH and Co., Konigshofell, Germany).
Prior to each test, the upper surface of each reservoir was coated with a thin layer of high-vacuum silicone grease (Dow Corning Corp., Midland, Mich.), and the cells then filled (approx. 6 ml. capacity) or topped-off with either: (1) expired human red blood cells suspended in citrate-phosphate-dextrose-adenine (CPDA) solution, not more than 1 month past expiration date, and to which 110 mg ATP/35 ml. blood-CPDA had been added on the day of testing; or (2) CPDA+ATP×^−3, usually made up or diluted to 10^−3 ATP on the day of testing. The filled cells were then covered with an Edicol collagen membrane (Devro, Sandy Run, S.C.) strip, and then with a just-treated (110 μl of 4.54 nmol/μl treatment or control solution) organdy cloth (G Street Fabrics, Rockville, Md.) strip. Mosquitoes used in tests were either Aedes aegypti_(Liverpool) or Anopheles stephensi_Liston. K&D modules containing 5 adult females/cell were placed over a Teflon separator atop each reservoir; the sliding floors opened allowing access to the treated organdy cloth and membrane-covered cell; and the number of mosquitoes biting (proboscis inserted through the cloth) and/or observed to be engorged within each cell at the end of a 3-5 min. exposure period was recorded. Mosquitoes were used only once in a test, and then frozen and discarded.
Only tests in which 3 or more females fed in the control cell were analyzed, as lower feeding rates are indicative of substandard feeding readiness of that group of mosquitoes.
[…] Data were collected to record knockdown in 6 minutes, one hour and 24 hours post exposure.

Ae. aegypti mosquitoes = test: Sleeve bite protection assay on treated uniform fabric, mosquitoes; format: in vivo, Aedes aegypti (Orlando, 1952)
Procedure: (§1) Biological Evaluation: Bite protection assays were conducted with laboratory-reared 7-12 day old mosquitoes or sand flies. The species used throughout these studies are Aedes aegypti (Orlando, 1952) and Phlebotomus papatasi sand flies (Jerusalem, 1983). Females were pre-selected using either a hand draw box or a mechanical aspirator. An assay was conducted by wearing sewn sleeves made from clothing material. Treated specimens were assayed with untreated controls to correct for the bite resistance afforded by material construction and composition. The untreated control was tested at the beginning of the experiment, followed by successively higher candidate repellent concentrations on sleeves. Sleeves were sewn from a cut out single ply trapezoidal pattern (33.2 cm×21 cm×25.5 cm height) of material. […] Permethrin was 35:65cis: trans, 95.85% technical material. Experimental repellents were received as neat samples with <5% impurities. The treatment occurred by dissolution of repellent in suitable quantity of acetone to saturate the clothing, but minimizing excess solution. Excess solution was quantified and this amount of excess was then used to calculate the estimated amount of repellent applied to the material. […] The photoperiod was 12:12. The mosquito cages were approximately 60000 cm^3 and each contained 175 to 225 female mosquitoes. […] Cages for sand fly work were slightly smaller (15000 cm^3) and constructed of acrylic for filming purposes and with screens on the exterior edges to allow air flow through the system. About 20-40 sand flies were released in cages for each assay. Assays started when the sleeved arm was inserted through the sleeve into the cage. Normally the hand was protected by a glove, but there were situations (i.e. sand fly data presented here) when the ability of a repellent to protect the untreated hand was determined. The assay periods were 15 min for the mosquitoes and 25-30 minutes for sand flies. The insects were allowed to land, probe and possibly bloodfeed during this time. At the conclusion of the experiment, all insects were knocked down or aspirated and the percentage that bloodfed of the total female test population in the cage was recorded. The protect level was calculated by Abbott's formula as a percentage reduction in bites compared to the untreated fabric control sleeve. Specific conditions for bioassays are noted with corresponding data contained in the Tables.

[4] = system: bed bugs (Cimex lectularius); test: Bed bug mortality on treated filter paper; format: in vivo; details: 24 h
[5] = system: Phlebotomus papatasi sand flies; test: Sleeve bite protection assay on treated uniform fabric, sand flies; format: in vivo, Phlebotomus papatasi (Jerusalem, 1983); details: FRACU, permethrin sleeve 0.134 mg/cm^2 + treated strip, hand ungloved; strip TL-I-73 0.167, transfluthrin 0.161 mg/cm2
Procedure: as §1

[6] = ACU (50/50 NYCO) sleeve, glove on hand, 15 min, permethrin 0.118, transfluthrin 0.108, TL-I-107 0.107, TL-I-141 0.109, TL-I-105 0.107, TL-I-73 0.102 mg/cm^2
[7] = ACU (50/50 NYCO) sleeve, glove on hand, Abbott's formula vs untreated sleeve, concentrations as E1
[8] = ACU (50/50 NYCO) sleeve, glove on hand, concentrations as E1
[9] = ACU sleeve, stored one year then tested, concentrations as E1
[10] = ACU sleeve, treated specimens stored in refrigerator for one year then tested, concentrations as E1
[11] = ACU sleeve, No Glove on hand, permethrin 0.118, transfluthrin 0.108 mg/cm^2
[12] = FRACU sleeve, concentrations as E9
[13] = FRACU, untreated sleeve + treated strip, Ultrathon (34.34% DEET) on hand, TL-I-73 0.163, transfluthrin 0.158 mg/cm^2
[14] = FRACU, untreated sleeve + treated strip, hand gloved, TL-I-73 0.163, transfluthrin 0.158 mg/cm^2

## Cc1c(COC(=O)[C@@H]2[C@H](/C=C(\Cl)C(F)(F)F)C2(C)C)cccc1-c1ccccc1 (racemic) [Bifenthrin]
[1]
  Bite Protection (% ± SE) (Ae. aegypti + An. albimanus): 91.5 ± 1.1%

## C=CCC1=C(C)C(OC(=O)C2C(C=C(C)C)C2(C)C)CC1=O (centres unmarked) [Allethrin]
[1]
  Bite Protection (% ± SE) (Ae. aegypti + An. albimanus): 98.7 ± 0.8%

## CC(C)=C[C@@H]1[C@@H](C(=O)OCc2coc(Cc3ccccc3)c2)C1(C)C [Bioresmethrin]
[1]
  Bite Protection (% ± SE) (Ae. aegypti + An. albimanus): 98.1 ± 0.8%

## CCOc1ccc(C(C)(C)COCc2cccc(Oc3ccccc3)c2)cc1 [Etofenprox]
[1]
  Bite Protection (% ± SE) (Ae. aegypti + An. albimanus): 94.9 ± 0.6%

## CC(C)=C[C@@H]1[C@@H](C(=O)OCc2c(F)c(F)c(C)c(F)c2F)C1(C)C [TL-I-105]
[2]
  mortality at 1 µg/cm2: 10%
  mortality at 10 µg/cm2: 100%
  mortality at 100 µg/cm2: 100%
[3]; 2.5 nM\cm^2, K&D module
  Knockdown 6 min (%): 98%
  Knockdown 24 hours (%): 100%
  Not feeding 3 minutes (%): 100%
[3]; 2.5 nmol/cm^2, K&D module
  Knockdown 1 hour (%): 100%
[3]; 25 nM\cm^2, K&D module
  Knockdown 6 min (%): 100%
  Knockdown 24 hours (%): 100%
  Not feeding 3 minutes (%): 100%
[3]; 25 nmol/cm^2, K&D module
  Knockdown 1 hour (%): 100%
[3]
  mortality at 0.0025 µM: 100%
  mortality at 0.025 µM: 100%
Ae. aegypti mosquitoes; [6]
  Blood-fed #: 0 #
Ae. aegypti mosquitoes; [7]
  Bite Protection (%): 100%
Ae. aegypti mosquitoes; [8]
  Fed (%): 0.0%
Ae. aegypti mosquitoes; [9]
  Bite Protection (%): 100%
  Fed (%): 0.0%
Ae. aegypti mosquitoes; [10]
  Blood-fed #: 0 #
[4]
  mortality at 5 µg/cm2: 100%

## Cc1c(Cl)c(Cl)c(COC(=O)[C@@H]2[C@@H](C=C(Cl)Cl)C2(C)C)c(Cl)c1Cl [TL-I-111]
[2]
  mortality at 1 µg/cm2: 0%
  mortality at 10 µg/cm2: 100%
  mortality at 100 µg/cm2: 100%
[4]
  mortality at 5 µg/cm2: 100%

## CC1(C)[C@H](C=C(Cl)Cl)[C@H]1C(=O)OCc1c(F)c(F)cc(F)c1F [Transfluthrin, transfluthrin]
[2]; at either 100 μg/cm^2 or 10 μg/cm^2
  mortality (in words): no mortality or mortality less than 100%
[2]; concentration not clearly stated for this group
  mortality (value in parentheses): 20%
[5]
  Bite Protection (%): significant protection from sand fly bites to the unprotected hand
[3]; 2.5 nM\cm^2, K&D module
  Knockdown 6 min (%): 100%
  Knockdown 24 hours (%): 100%
  Not feeding 3 minutes (%): 100%
[3]; 2.5 nmol/cm^2, K&D module
  Knockdown 1 hour (%): 100%
[3]; 25 nM\cm^2, K&D module
  Knockdown 6 min (%): 100%
  Knockdown 24 hours (%): 100%
  Not feeding 3 minutes (%): 100%
[3]; 25 nmol/cm^2, K&D module
  Knockdown 1 hour (%): 100%
[3]
  mortality at 0.0025 µM: 100%
  mortality at 0.025 µM: 100%
Ae. aegypti mosquitoes; [6]
  Blood-fed #: 0 #
Ae. aegypti mosquitoes; [7]
  Bite Protection (%): 100%
Ae. aegypti mosquitoes; [8]
  Fed (%): 0.0%
Ae. aegypti mosquitoes; [11]
  Blood-fed #: 4 #
  Fed (%): 2.1%
Ae. aegypti mosquitoes; ACU sleeve, glove removed from hand, compared with permethrin
  protecting non-repellent treated surfaces of skin (i.e. the hand): superior to permethrin
Ae. aegypti mosquitoes; [9]
  Bite Protection (%): 100%
  Fed (%): 0.0%
Ae. aegypti mosquitoes; [10]
  Blood-fed #: 0 #
Ae. aegypti mosquitoes; Defender-M FRACU sleeve at 0.52 mg/cm2
  bite protection: 100%
Ae. aegypti mosquitoes; FRACU (65% Rayon, 10% Nylon, 25% Para-aramid) sleeve, permethrin 0.071, combination permethrin 0.031 + transfluthrin 0.038, transfluthrin 0.052 mg/cm^2
  Blood-fed #: 0 #
Ae. aegypti mosquitoes; [12]
  Bite Protection (%): 100.0%
  Fed (%): 0.0%
Ae. aegypti mosquitoes; FRACU sleeve, concentrations as E9, listed as transfluthrin
  Bite Protection (%): 100%
Ae. aegypti mosquitoes; FRACU, permethrin sleeve 0.134 mg/cm^2 + treated strip, hand gloved, strip TL-I-73 0.167, transfluthrin 0.161 mg/cm^2
  Bite Protection (%): 100%
Ae. aegypti mosquitoes; FRACU, untreated sleeve + treated strip (20.5 cm × 2.6 cm) at wrist, hand gloved, TL-I-73 0.163, transfluthrin 0.158 mg/cm^2
  Blood-fed #: 11 #
Ae. aegypti mosquitoes; FRACU, untreated sleeve + treated strip, Ultrathon 12 hr repellent (34.34% DEET) on hand, TL-I-73 0.163, transfluthrin 0.158 mg/cm^2
  Blood-fed #: 6 #
Ae. aegypti mosquitoes; [13]
  Bite Protection (%): 89.2%
  Fed (%): 2.9%
Ae. aegypti mosquitoes; [14]
  Bite Protection (%): 93.3%
  Fed (%): 5.5%
